According to patent US20240109930A1, “TRIAZOLYL-METHYL SUBSTITUTED ALPHA-D-GALACTOPYRANOSIDE DERIVATIVES” (Idorsia Pharmaceuticals Ltd, priority 2021, published 2024):
pIC50: −log10 of the molar value.

Legend:
human Gal-1 (hGal-1) = human Gal-1 (hGal-1) (Homo sapiens, UniProt P09382, C131S/C17S/C43S/C61S/C89S); experiment: Competitive binding assay: biotinylated hGal-1 binding to microplate-adsorbed asialofetuin (ASF); conditions: IC50 values from several measurements given as geomean
Summary of the method: (§1)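 Biotinylated hGal-3 or hGal-1 (preferably cysteine-free Cys→Ser mutant), 300–1000 ng/mL, competes with compound for ASF-coated wells for 3 h at 4 °C. Bound lectin detected with streptavidin-peroxidase (80 ng/mL, 1 h, 4 °C) and ABTS by absorbance; IC50 reported as geomean of several runs.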

human Gal-3 (hGal-3) = human Gal-3 (hGal-3) (Homo sapiens (Human), UniProt P17931); experiment: Competitive binding assay: biotinylated hGal-3 binding to microplate-adsorbed asialofetuin (ASF); conditions: IC50 values from several measurements given as geomean
Summary of the method: as §1

human Gal-3 (hGal-3), sequence (P17931 whole entry): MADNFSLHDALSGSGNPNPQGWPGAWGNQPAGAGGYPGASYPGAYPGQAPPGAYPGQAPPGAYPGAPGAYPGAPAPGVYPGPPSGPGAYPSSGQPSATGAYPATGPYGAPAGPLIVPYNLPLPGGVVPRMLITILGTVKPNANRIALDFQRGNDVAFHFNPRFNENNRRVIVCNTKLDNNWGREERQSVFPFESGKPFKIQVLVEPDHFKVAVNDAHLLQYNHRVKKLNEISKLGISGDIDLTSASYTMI

| pIC50 (human Gal-1 (hGal-1)) | pIC50 (human Gal-3 (hGal-3)) | Structure (SMILES) |
| --- | --- | --- |
| 6.08 | 7.30 | CO[C@@H]1[C@@H](n2cc(-c3ccc(Cl)c(F)c3F)nn2)[C@@H](O)[C@@H](CO)O[C@@H]1Cc1cn(C2(C(F)(F)F)CC3CCC2C3)nn1 (some centres unmarked) [Ex 2.1.70.] |
| 6.17 | 7.30 | CO[C@@H]1[C@@H](n2cc(-c3ccc(Cl)c(F)c3F)nn2)[C@@H](O)[C@@H](CO)O[C@@H]1Cc1cn(C2(C(F)(F)F)CCC(F)(F)CC2)nn1 [Ex 2.1.71., (2R,3R,4S,5R,6R)-4-(4-(4-chloro-2,3-difluorophenyl)-1H-1,2,3-triazol-1-yl)-6-((1-(4,4-difluoro-1-(trifluoromethyl)cyclohexyl)-1H-1,2,3-triazol-4-yl)methyl)-2-(hydroxymethyl)-5-methoxytetrahydro-2H-pyran-3-ol] |
| 6.32 | 7.30 | CO[C@@H]1[C@@H](n2cc(-c3ccc(Cl)c(F)c3F)nn2)[C@@H](O)[C@@H](CO)O[C@@H]1Cc1cn(C2(C(F)(F)F)CCOCC2)nn1 [Ex 2.1.72., (2R,3R,4S,5R,6R)-4-(4-(4-chloro-2,3-difluorophenyl)-1H-1,2,3-triazol-1-yl)-2-(hydroxymethyl)-5-methoxy-6-((1-(4-(trifluoromethyl)tetrahydro-2H-pyran-4-yl)-1H-1,2,3-triazol-4-yl)methyl)tetrahydro-2H-pyran-3-ol] |
| 5.56 | 7.30 | CO[C@@H]1[C@@H](n2cc(-c3ccc(Cl)c(F)c3F)nn2)[C@@H](O)[C@@H](CO)O[C@@H]1Cc1cn(C2CC23CC3(F)F)nn1 (stereo partly drawn) [Ex 2.1.75., (2R,3R,4S,5R,6R)-4-(4-(4-chloro-2,3-difluorophenyl)-1H-1,2,3-triazol-1-yl)-6-((1-(4,4-difluorospiro[2.2]pentan-1-yl)-1H-1,2,3-triazol-4-yl)methyl)-2-(hydroxymethyl)-5-methoxytetrahydro-2H-pyran-3-ol] |
| 6.09 | 7.70 | CO[C@@H]1[C@@H](n2cc(-c3ccc(Cl)c(F)c3F)nn2)[C@@H](O)[C@@H](CO)O[C@@H]1Cc1cn(C2(CF)CC2(F)F)nn1 (stereo partly drawn) [Ex 2.1.76., (2R,3R,4S,5R,6R)-4-(4-(4-chloro-2,3-difluorophenyl)-1H-1,2,3-triazol-1-yl)-6-((1-(2,2-difluoro-1-(fluoromethyl)cyclopropyl)-1H-1,2,3-triazol-4-yl)methyl)-2-(hydroxymethyl)-5-methoxytetrahydro-2H-pyran-3-ol] |
| 5.83 | 7.30 | CO[C@@H]1[C@@H](n2cc(-c3ccc(Cl)c(F)c3F)nn2)[C@@H](O)[C@@H](CO)O[C@@H]1Cn1cc(C2(CO)CC2)nn1 [Ex 2.2.4.] |
| 5.93 | 7.52 | CO[C@@H]1[C@@H](n2cc(-c3ccc(Cl)c(F)c3F)nn2)[C@@H](O)[C@@H](CO)O[C@@H]1Cn1cc(C2(C)COC2)nn1 [Ex 2.2.6.] |
| 5.47 | 7.30 | CO[C@@H]1[C@@H](n2cc(-c3ccc(Cl)c(F)c3F)nn2)[C@@H](O)[C@@H](CO)O[C@@H]1Cn1cc(C23CC(C2)C3)nn1 [Ex 2.2.12.] |
| 5.82 | 7.52 | CO[C@@H]1[C@@H](n2cc(-c3ccc(Cl)c(F)c3F)nn2)[C@@H](O)[C@@H](CO)O[C@@H]1Cn1cc(C2(C)CCC2)nn1 [Ex 2.2.13.] |
| 5.77 | 7.22 | CO[C@@H]1[C@@H](n2cc(-c3ccc(Cl)c(F)c3F)nn2)[C@@H](O)[C@@H](CO)O[C@@H]1Cn1cc(C2(C)CC2)nn1 [Ex 2.2.23.] |
| 5.58 | 7.05 | CO[C@@H]1[C@@H](n2cc(-c3ccc(Cl)c(F)c3F)nn2)[C@@H](O)[C@@H](CO)O[C@@H]1Cn1cc(C2(O)CCC2)nn1 [Ex 2.2.31.] |
| 5.42 | 7.30 | CO[C@@H]1[C@@H](n2cc(-c3ccc(Cl)c(F)c3F)nn2)[C@@H](O)[C@@H](CO)O[C@@H]1Cn1cc(C2CCCC2)nn1 [Ex 2.2.32.] |
| 5.32 | 7.10 | CO[C@@H]1[C@@H](n2cc(-c3ccc(Cl)c(F)c3F)nn2)[C@@H](O)[C@@H](CO)O[C@@H]1Cn1cc(C2(O)CCCC2)nn1 [Ex 2.2.33.] |
